Experimental data published in patent publication US20170260169A1, “INHIBITORS FOR STEROID RESPONSE ELEMENTS AND RNA POLYMERASE II AND RELATED METHODS” (priority 2007, published 2017).

Legend:
[1] = test system: AR occupancy at the PSA promoter and enhancer; assay: Chromatin immunoprecipitation with anti-AR, PSA promoter and enhancer; format: cell-based
Procedure: LNCaP cells were plated in 15-cm diameter plates at a density of 2×10^6 cells per plate. Media, polyamide treatment, time course, and DHT stimulation were the same as described above. After the 16-h DHT treatment, cells were treated with 1% formaldehyde for 10 min. Chromatin was isolated and sheared. Antibodies to AR (AR-20, Santa Cruz Biotechnology, Santa Cruz, Calif.) were used to immunoprecipitate AR-bound DNA fragments. Crosslinks were reversed, and PCRs using primers targeted to the regions of interest were used to assess enrichment of bound fragments as compared with mock-precipitated (no antibody) controls. PCRs were monitored with SYBR Green PCR Master Mix (Applied Biosystems) on an ABI 7300 instrument. Primer sequences and a more detailed experimental protocol are available upon request.

[2] = test system: FKBP5 mRNA expression in LNCaP cells; assay: DHT-induced FKBP5 mRNA in LNCaP cells; format: cell-based
ARE of the PSA promoter = assay: Quantitative DNase I footprint titration on pAR-PSA fragment; format: binding
From the text: Plasmid pAR-PSA was constructed by inserting a 70-bp sequence from the PSA promoter containing the ARE into pUC19 plasmid. […] Detailed experimental protocols are reported elsewhere (44). The proximal PSA promoter contains the ARE [NT] ID NO:15) (FIG. 8A). […] However, 1 is observed to bind the sequence [NT]≈12 bp 5' to the ARE, which is an expected binding site for this molecule.

[3] = test system: binding of LNCaP nuclear extract factors to the ARE site in the PSA promoter; assay: Electrophoretic mobility shift assay with DHT-stimulated LNCaP nuclear extract; format: biochemical; settings: same concentrations
Procedure: containing the PSA promoter ARE (underlined) was end-labeled with ^32P and annealed to its complement. Polyamides 1 and 2 were incubated with the duplex for 3 h in previously optimized buffer conditions (45). Nuclear extract from DHT-treated LNCaP cells (Genetex, San Antonio, Tex.) was then added for an additional 45 min. Complexes were run on a 5% polyacrylamide gel and visualized on a phosphorimager.
The effects of polyamides 1 and 2 on the binding of factors present in the nuclear extract isolated from DHT-stimulated LNCaP cells to the ARE site in the PSA promoter was measured by an electrophoretic mobility shift assay (FIG. 8D).

[4] = test system: transcripts in DHT-stimulated LNCaP cells; assay: Gene expression with Affymetrix Human Genome U133 Plus 2.0 arrays, DHT-stimulated LNCaP cells; format: cell-based
Procedure: LNCaP cells were plated in 12-well plates at a density of 80-100×10^3 cells per well. Media, polyamide treatments, and time courses were the same as described above. Bicalutamide was added 2 h before DHT stimulation. RNA was isolated as described in ref. 21. From this point, experiments were carried out at the Millard and Muriel Jacobs Gene Expression Facility at the California Institute of Technology. Labeled mRNA was hybridized to Affymetrix high-density Human Genome U133 Plus 2.0 arrays according to established protocols. Gene expression was analyzed by using Resolver (Rosetta Biosoftware, Seattle, Wash.). Data were uploaded to the Gene Expression Omnibus repository (accession no. GSE7708).
Global effects of polyamides 1 and 2 and bicalutamide on gene expression in DHT-stimulated LNCaP cells were monitored with Affymetrix (Santa Clara, Calif.) high-density Human Genome U133 Plus 2.0 arrays, which interrogate >50,000 transcripts.

[5] = test system: GILZ mRNA expression in A549 cells; assay: Dexamethasone-induced GILZ mRNA in A549 cells, quantitative real-time RT-PCR; format: cell-based
[6] = test system: PSA mRNA expression in LNCaP cells; assay: DHT-induced PSA mRNA in LNCaP cells, quantitative real-time RT-PCR; format: cell-based
Procedure: LNCaP cells (ATCC) were plated in 24-well plates at a density of 40-50×10^3 cells per well (80-100×10^3 cells per ml) in RPMI medium 1640 (ATCC) supplemented with 10% FBS (Irvine Scientific, Santa Ana, Calif.). After 72 h, the medium was replaced with RPMI medium 1640 containing 10% charcoal stripped FBS with or without polyamides at the designated concentrations. Cells were grown for an additional 48 h and then treated with 1 nM DHT for 16 h. When appropriate, bicalutamide was added 2 h before DHT stimulation. Isolation of RNA and cDNA synthesis was performed as described (21). Quantitative real-time RT-PCR was performed with SYBR Green PCR Master Mix (Applied Biosystems, Foster City, Calif.) on an ABI 7300 instrument. PSA mRNA was measured relative to β-glucuronidase as an endogenous control.

[7] = test system: AR occupancy at the FKBP5 intronic enhancer; assay: Chromatin immunoprecipitation with anti-AR, FKBP5 fifth intron enhancer; format: cell-based; settings: 10 μM
[8] = Liver microsomal stability, human
Procedure: (§2) Briefly, each polyamide was incubated with 1 mg/ml human or mouse microsomes at 37° C. The reaction was incubated in 100 mM KH2PO4, 2 mM NADPH, 3 mM MgCl2 at pH 7.4. Samples were also incubated in the absence of NADPH to detect NADPH-free degradation. After 60 min the samples were mixed with an equal volume of ice cold methanol stop solution. The mixture was allowed to sit on ice for at least 10 min and mixed with an equal volume of water. The samples were then centrifuged to remove the precipitates and the samples were analyzed by LC/MS/MS. Data represents % remaining by comparing with time zero concentration. The experiments were performed in duplicate.

[9] = Multiple-dose subcutaneous injections, male C57BL/6J mice; format: in vivo; settings: 1 mg/kg SC every 3 days
Procedure: In addition to single dose injections, the effects of repeated dosing of polyamides 77-80 in mice were examined. In this experiment, 8 week-old male C57BL/6J mice (n=3 per dosing group) were treated with 1 mg/kg of polyamides 77-80 by subcutaneous injection every 3 days, for a cycle of three injections and then sacrificed two days after the final injection (FIG. 31A). As in the single dosing experiments, two mice per group were subjected to histopathology analysis and all blood samples were sent for analysis. […] These mice were promptly euthanized.
Serum from treated animals were collected by retroorbital bleeding. […] All samples were sent for analysis at IDEXX-RADIL.

[10] = previous assay, 0.3 mg/ml enzyme (34); cited from earlier work
[11] = Liver microsomal stability, mouse
Procedure: as §2

[12] = cited from earlier work
[13] = Escalating single dose subcutaneous injections, male C57BL/6J mice (weight, histopathology, serum)
Procedure: Representative mice (n=2 per dosing group unless otherwise noted) were subjected to histopathology analysis by a veterinary pathologist. Blood from all mice was sampled and sent for analysis of serum markers of target organs. […] These mice were euthanized when significant duress was apparent.
All animal experiments were conducted under an approved protocol at the California Institute of Technology. Animals were allowed to adjust for 3 days after arrival before treatment. […] Animals were monitored daily for weight loss over 9 days and sacrificed. […] Weight was recorded on days of injection and at the experiment endpoint.
Sacrificed animals from weight loss experiments were fixed in 10% formalin and sent for histopathology analysis by IDEXX-RADIL. Histopathologic analysis was performed on the cecum, duodenum, heart, ileum, kidney, liver, lung, pancreas, spleen, and stomach. Tissue analysis was performed as a blind study to the identity of the animals.
Serum from treated animals were collected by retroorbital bleeding. Blood samples were centrifuged at 6,000 rpm for 5 min to collect the serum. Serum ALT, AST, total bilirubin, BUN, and creatinine levels were sent for analysis by IDEXX-RADIL. Serum analysis was performed as a blind study to the identity of the animals.

p53 = p53 protein ELISA in LNCaP cells; format: cell-based; settings: polyamide 10 μM 72 hr; doxorubicin 1 μM 24 hr
Procedure: (§1) Cellular levels of RPB1 and p53 protein in LNCaP cells after treatment with 10 μM 3 for 72 h were determined by ELISA. Cells treated with DMSO vehicle and 1 μM doxorubicin for 24 h were used as control. Cellular RBP1 levels were determined by a RPB1 specific ELISA kit (Cusabio Life Sciences) according to manufacturer's instructions. Total cellular p53 protein level was determined with a pan-p53 ELISA kit (Roche) according to manufacturer's instructions. Assays were performed in biological triplicates.

RPB1 = RPB1 protein ELISA in LNCaP cells; format: cell-based; settings: polyamide 10 μM 72 hr; doxorubicin 1 μM 24 hr
Procedure: as §1, with “Cellular levels of RPB1 and p53 protein in LNCaP cells after treatment with 10 μM 3 for 72 h were determined by ELISA.” left out

[14] = test system: DNA damage in LNCaP cells; assay: Alkaline comet assay in LNCaP cells; settings: polyamide 10 μM 48 h; dox 5 μM 4 h
Procedure: LNCaP cells were plated at 1 million cells per 10 cm plate and allowed to adhere for 24 to 36 h. Cells were then incubated with either 10 μM 77 for 48 h or 5 μM doxorubicin for 4 h. DNA damage was assayed using the Trevigen CometAssay® system and samples were prepared from harvested cells according to the manufacture protocol. Comets were imaged on a confocal microscope (Exciter, Zeiss) at 10× magnification. Percentage of DNA in the tail was determined using Comet Assay Lite IV (Perceptive Instruments). More than one hundred comets were scored for each condition.
LNCaP cells were plated in 6 well plates at 100,000 cells per well and allowed to adhere for 36-48 h. The cells were then incubated with either 10 μM 78 for 48 h or 5 μM doxorubicin for 4 h. DNA damage was assayed using the Trevigen CometAssay system. Cells were harvested by gentle aspiration with PBS and prepared on slides according to the manufacturer's protocol. Comets slides were imaged on a confocal microscope (Exciter, Zeiss) at 10× magnification. Images were scored using Comet Assay Lite IV (Perceptive Instruments). More than 100 comets were scored for each condition. DNA damage is reported as percentage of DNA in the tail.

[15] = 10 μM, + DHT, relative to DHT-induced controls, p ≦ 0.01
[16] = relative to DHT-induced controls, + DHT
[17] = 1 μM, Human, 1 hr at 37° C., 1 mg/ml microsomes
[18] = 1 μM, Mouse, 1 hr at 37° C., 1 mg/ml microsomes

In the case of `CN(CCCNC(=O)c1cccc(C(=O)O)c1)CCCNC(=O)c1cc(NC(=O)c2cc(NC(=O)c3nc(NC(=O)c4cc(NC(=O)[C@H](N)CCNC(=O)c5nc(NC(=O)c6cc(NC(=O)c7cc(NC(=O)c8nccn8C)cn7C)cn6C)cn5C)cn4C)cn3C)cn2C)cn1C` [Polyamide 2], the “occupancy of AR at the PSA promoter and enhancer” value ([1]; 1 μM as printed) was “minimal effect”, the “AR occupancy at the PSA promoter and enhancer” value ([1]; 10 μM, FIG. 9 legend) was “not” and the “effect on FKBP5 expression” value [2] was “minimal effect”. The “binding in the footprinted region” value (ARE of the PSA promoter) was “no measurable binding”, the Ka (ARE of the PSA promoter; ARE consensus half-site 5′-AGAACA-3′) was under 1e+07 M⁻¹ and the “effect on binding to the labeled duplex” value [3] was “minimal effect”. For the same compound, the “Number of transcripts down-regulated (fold change ≦ −2.0)” value [4, 15] was 284, the “Number of transcripts down-regulated (fold change ≦ −4.0)” value [4, 15] was 32 and the “Number of transcripts up-regulated (fold change ≧ 2.0)” value [4, 15] was 95. For the same compound, the “Number of transcripts up-regulated (fold change ≧ 4.0)” value [4, 15] was 11, the “number of transcripts affected by at least 2-fold” value ([4]; 10 μM, P≦0.01, vs DHT-induced controls) was 379 and the “share of interrogated transcripts affected” value ([4]; 10 μM, at least 2-fold) was under 1%. For the same compound, the “number of the 88 DHT-repressed transcripts derepressed at least 2-fold” value ([4]; P≦0.01) was 3, the “number of the 199 DHT-induced transcripts inhibited at least 2-fold” value ([4]; P≦0.01) was 20 and the “Fold-change of FKBP5” value [4, 16] was 1.5. For the same compound, the “Fold-change of KLK2” value [4, 16] was −1.1, the “Fold-change of KLK3 (PSA)” value [4, 16] was −1.4 and the “Fold-change of TMPRSS2” value [4, 16] was −1.4. The “effect on GILZ mRNA induction” value [5] was “more modest effect”, the “effect on DHT-induced PSA mRNA” value [6] was “more modest effect” and the “effects on cell growth” value ([6]; LNCaP, over the course of the experiment) was “no obvious detrimental effects on cell growth”. The “occupancy of AR at the FKBP5 intronic enhancer” value [7] was “no measurable effect”.
With `CC(=O)N[C@@H](CNC(=O)c1cc(NC(=O)c2cc(NC(=O)c3cc(NC(=O)c4nccn4C)cn3C)cn2C)cn1C)CC(=O)Nc1cn(C)c(C(=O)Nc2cc(C(=O)Nc3cc(C(=O)Nc4cc(C(=O)NCCCN(C)CCCNC(=O)c5cccc(C(=O)O)c5)n(C)c4)n(C)c3)n(C)c2)n1` [Polyamide 80, ImPyPyPy-3-(R)^AcHNγ-ImPyPyPy-NHMe-IPA] the “Mean remaining parent NADPH-free” value [8, 17] was 3.8%, the “Mean remaining parent with NADPH” value [8, 17] was 3.0% and the “intact after 1 hour incubation” value ([8]; human liver microsomes, with or without NADPH) was “less than 5%”. For the same compound, the “liver and kidney histopathology” value [9] was “marked hepatocellular necrosis and apoptosis in the liver and hyaline droplet accumulation in the kidneys”, the “weight and physical morbidity” value ([9]; three injections) was “dramatic weight loss, loss of mobility, and hunched posture within six days” and the “stability against rat and human microsomes” value [10] was “stable”. For the same compound, the “Mean remaining parent NADPH-free” value [11, 18] was 4.9%, the “Mean remaining parent with NADPH” value [11, 18] was 4.0% and the “intact after 1 hour incubation” value ([11]; mouse liver microsomes, with or without NADPH) was “less than 5%”. The “animal toxicity after single subcutaneous administration” value ([12]; female C57BL/6J mice, 77 at 2.5 and 5 mg/kg, 80 at 2.3 and […]) was “acute animal toxicity in addition to weight loss”, the renal clearance ([12]; mouse, in vivo) was “significant renal clearance was exclusive to 80” and the “tolerability, behavior and morbidity after single SC dose” value ([13]; 1, 3, 10 mg/kg) was “only tolerated at 1 mg/kg”. The kidney histopathology ([13]; single SC 1 mg/kg) was “Milder tubular regeneration and karyomegaly”, the liver histopathology ([13]; single SC 1 mg/kg) was “Mild hepatocellular necrosis and apoptosis” and the kidney histopathology ([13]; single SC 3 mg/kg) was “Moderate atypical tubular regeneration”. For the same compound, the liver histopathology ([13]; single SC 3 mg/kg) was “multifocal bridging hepatocellular necrosis and apoptosis”, the spleen histopathology ([13]; single SC 3 mg/kg) was “Mild lymphoid apoptosis in the white pulp of the spleen” and the kidney histopathology ([13]; single SC 10 mg/kg) was “Moderate atypical tubular regeneration”. The liver histopathology ([13]; single SC 10 mg/kg) was “multifocal bridging hepatocellular necrosis and apoptosis”, the spleen histopathology ([13]; single SC 10 mg/kg) was “Mild lymphoid apoptosis in the white pulp of the spleen” and the “serum kidney markers creatinine and BUN” value ([13]; single SC dose) was “significantly elevated creatinine and BUN at 10 mg/kg, and elevated BUN at 3 mg/kg”. The “serum liver markers AST, ALT, total bilirubin” value ([13]; single SC dose) was “marked and severe elevations of AST, ALT, and total bilirubin at both 3 mg/kg and 10 mg/kg”.
With `COc1cccc2c1C(=O)c1c(O)c3c(c(O)c1C2=O)C[C@@](O)(C(=O)CO)C[C@@H]3O[C@H]1C[C@H](N)[C@H](O)[C@H](C)O1` [doxorubicin, reference compound] the “cellular level of p53 protein” value (p53) was “increases”, the RPB1 protein (RPB1) was “decreases” and the “DNA damage by comet assay” value [14] was “significantly increases comet-tail percent of DNA”.
